Reference: US20140173781A1, “METHODS AND COMPOSITIONS FOR PRODUCING AND SELECTING TRANSGENIC WHEAT PLANTS” (PIONEER HI-BRED INTERNATIONAL, INC., priority 2012, published 2014)

What was measured:
Type in all cases: in vivo
[1] = test system: soybean seeds; test: Germination of soybean T1 immature seeds on glyphosate medium; details: 20-50 μM glyphosate; transgenic and nontransgenic soybean seeds without desiccation treatment
Description: (§1) T1 immature pods from transgenic soybean plants are harvested, sterilized with 15% Clorox+2 drops of Tween 20 and rinsed with autoclaved water 3 times. Immature seeds are isolated from sterilized pods and placed on sterile fiber glass filter paper in a Petri dish. The Petri dish is […] and with 20-50 μM glyphosate for selection. One to 2 weeks later, DsRed expression is checked in the emerging shoots. Immature seeds that have been properly desiccated will have very weak or no DsRed expression as the gene is excised via the LoxP sites. […] Immature seeds that successfully underwent gene excision by desiccation will have glyphosate resistance and regenerate on medium containing 20-50 μM glyphosate.

[2] = test system: maize inbred PHR03 plants; test: Glyphosate spray test on plants germinated from T1 mature corn seed; details: glyphosate+surfactant at 2× or 4×
From the text: Immature embryos of maize inbred PHR03 were transformed with the excision vector AGL1/PHP54353, the expression of DsRed was visually confirmed, and T0 plantlets were regenerated as described in Example 5. Before moving the T0 plantlets to soil, the expression of DsRed was again visually confirmed.
To confirm that the natural desiccation process that occurs during seed maturation would in fact allow for the excision of DsRed and resistance to glyphosate, seeds collected from T0 plants crossed with wild-type PHR03 pollen were germinated in soil. By planting seeds straight to soil without any treatments, excision would be a result of natural processes.
Three random events were chosen to be tested by this method. Five mature T1 seeds each from the following events, PHP54353 T0 event numbers 6, 7, and 10 were placed in small pots with Metro Mix soil (Sun Gro Horticulture, McFarland, Calif.) with fertilizer and placed in the greenhouse. After plants had germinated and grown to about 12-18 cm (10-12 days after planting), the plants were then sprayed with glyphosate+surfactant at 2× or 4× concentration (1× is equivalent to what is used in the field). Before spraying, all pots were evenly spaced and positioned to ensure that they would receive an even distribution of glyphosate. The distance between the sprayer nozzle and the apical meristem of the plants was approximately 18 inches. Within 10-12 days, it was visibly evident which plants were not affected by the herbicide and which plants had been severely damaged.

[3] = test system: sugarcane plants; test: Glyphosate spray test on sugarcane T0 plantlets; details: 4× glyphosate
Description: T0 plantlets were then moved to soil and spray tested with 4× glyphosate to confirm excision/glyphosate resistance. […] The final confirmation of stable transformation frequency is determined based on molecular analysis such as PCR and Southern blot hybridization.

[4] = test system: tobacco seeds; test: Germination of tobacco T1 immature seeds on glyphosate medium; details: 20-50 μM glyphosate; transgenic and nontransgenic tobacco seeds without desiccation treatment
Description: as §1, with “immature seeds” for “immature pods”, “transgenic tobacco” for “transgenic soybean”, “are isolated,” for “are harvested,”, “times. Sterilized immature” for “times. Immature”, “are” for “are isolated from sterilized pods and”, “desiccated” for “desiccated will”

Structure (SMILES): O=C(O)CNCP(=O)(O)O [glyphosate, N-phosphonomethylglycine]
- germination [1]: completely inhibited
- Glyphosate Spray Test ([2]; PHP54353 lab event 6 T1 plants, fraction of plants tolerant): 2/4 plants tolerant
- Glyphosate Spray Test ([2]; PHP54353 lab event 7 T1 plants): 5/5 plants damaged
- Glyphosate Spray Test ([2]; PHP54353 lab event 10 T1 plants): 4/4 plants damaged
- Glyphosate Spray Test ([2]; PHP54353 lab event 13 T1 plants, fraction of plants tolerant): 2/5 plants tolerant
- Glyphosate Spray Test ([2]; Wild-type PHR03 plants): 4/4 plants damaged
- Glyphosate Spray Test ([3]; independent T0 events (PHP54561, after excision) from 3 sugarcane cultivars): strong glyphosate resistance
- Glyphosate Spray Test ([3]; plants of 3 nontransgenic sugarcane cultivars): completely killed
- germination [4]: completely inhibited
